Source: publication PMC4226669, “Anti-cancer potency of tasquinimod is enhanced via albumin-binding facilitating increased uptake in the tumor microenvironment” (Oncotarget, 2014)
Where two headings read alike, the source gives them in different places.

How the values were obtained:
[1] = tested on: HUVEC and CWR-22Rv1, LAPC-4, LNCaP cells; assay: In vitro cell metabolism in HUVEC and 3 prostate cancer cell lines; assay type: in vitro ADME, human; settings: 48 hours, 1 μM, confluent cell density
Description: Since tasquinimod binds to both S100A9 and HDAC4 proteins with high affinities and since S100A9 has both an extracellular and intracellular location while HDAC4 in prostate cancer cells is in the cell nucleus, it is important to evaluate whether tasquinimod is capable of entering cells or whether it only associates with extracellular plasma membrane components. To resolve this question, an in vitro approach was taken using three human prostate cancer cells (i.e., CWR-22Rv1, LAPC-4, and LNCaP) and human umbilical vein endothelial (HUVEC) cells. When 1 μM tasquinimod is added to 10% fetal bovine serum (FBS) supplemented media, there is sufficient albumin to bind 80% of the drug so that the protein-free concentration of tasquinimod in such media is only 0.2 μM. Preliminary studies documented that even after 48 hours of exposure of HUVEC and each of the 3 prostate cancer cell lines to 1 μM at confluent cell density, there was < 15% metabolism of the parental tasquinimod drug with the major metabolite being the O-demethylated quinoline compound.
(§1) For in vitro studies, cells were incubated with 1μM ^14C-labeled tasquinimod for indicated time period and then the media and cells or cell nuclei separately harvested, deproteinated with acetonitrile, and metabolites separated by HPLC and quantitated as described above.

HUVEC cells = assay: In vitro cell metabolism in HUVEC; assay type: in vitro ADME, human; settings: HUVEC, 1 μM, 48 hours
Method: The nuclear uptake results are consistent with tasquinimod being the active drug for both direct therapeutic effects on cancer cells and indirect effects via suppression of the angiogenic response of host endothelial cells. To confirm these conclusions, the concentration of tasquinimod metabolites produced by endothelial cells was compared to the potency of these metabolites for inhibiting angiogenesis. When HUVEC cells are exposed to 1 μM of ^14C-labeled tasquinimod for 48 hours, < 15% of the drug is metabolized with 10% (i.e., 100 nM) being converted to the quinoline-O-demethylated compound and < 2% (i.e., < 20 nM) being converted to the quinoline-N-demethylated or carboxamide-N-demethylated compounds.
as §1

[2] = parameters: method as in PMID 16955399; settings: adult male mice, 0.1-30 mg/kg via gavage or drinking water; cited from earlier work
[3] = Plasma pharmacokinetics after oral gavage in nude mice bearing CWR-22Rv1 xenografts; assay type: in vivo, mouse; settings: for half-life: po, 5 mg/kg
Method: To determine the PK of tasquinimod, nude mice with growing (i.e., 200-400 mm^3) CWR-22Rv1 human prostate cancer xenografts were given ^14C-radiolabeled drug at a dose of 5 mg/kg via oral gavage and the plasma and tissue (i.e., liver, kidney, and tumor) drug concentration determined. Maximum tasquinimod plasma concentration is reached within 1 hour after oral gavage of mice, Figure 1C. After this absorption phase, the plasma concentration declines bi-exponentially as the sum of two first-order processes involving tissue distribution, with the plasma concentration remaining above 1 μM for at least 24 hours, Figure 1D. These PK results support a two-compartment model composed of a central and peripheral compartment. In the absorption phase, the apparent volume of distribution is low (i.e., 0.31 L/kg) but is still more than 3 times the total volume of the blood (i.e., 0.1 L/kg) and is equal to the extracellular body fluid (i.e. 0.2 L/kg) plus the total volume of blood in a mouse (i.e., […]).
Male nude mice bearing 200-300mm^3 CWR-22Rv1 cancers were given ^14C-labeled tasquinimod at a dose of 5 mg/kg via oral gavage. At times ranging from 30 min to 24 hour, groups of 4-6 mice were anaesthetized with ketamine and 1 ml of heparinized blood collected by cardiac puncture, followed by subsequent cardiac perfusion of saline to remove blood associated drug. An aliquot of liver, kidney, and cancer was removed, weighed and then homogenized. The radioactivity in 10 μL aliquots of tissue homogenates and blood plasma was determined using a liquid scintillation counter and used to calculate the total amount of tasquinimod plus its metabolites per gram of tissue or per ml of blood. The remaining sample volume was deproteinated with acetonitrile and the radioactivity of an aliquot of the supernatant determined and the remaining supernatant lyophilized, resuspended initially with 0.1mL dimethyl sulfoxide and diluted by the addition of 0.9mL deionized water prior to injection into the HPLC. The HPLC system consisted of Waters pumps using a Waters gradient controller to deliver mobile phase at a flow rate of 1mL per minute using a Supelcosil ABZ+ C18 column that is 150mm long by 4.6mm diameter and has 5μm particle size. The metabolites were separated using a linear gradient in which the starting mobile phase was 35% acetonitrile: 65% water: 0.1% Trifluoroacetic acid (TFA) increasing to 50% acetonitrile: 50% water: 0.1%TFA over 25 minutes, and then increased rapidly to 98% acetonitrile: 2% water: 0.1%TFA and held until 33 minutes before it is returned to the initial conditions for the next run. Fractions were collected and the radioactivity determined by scintillation counting. As controls, the individual elution time of non-radiolabeled standard solutions of the various tasquinimod metabolites was determined using UV absorption at 215nm. The results were expressed as concentration based upon tissue volume, assuming 1gram wet weight equals 1ml, or normalized to tissue vascular volume.

[4] = Protein binding fraction (PBF) in nude mouse plasma; assay type: in vitro ADME
Method: Mice were orally gavaged with ^14C-labeled tasquinimod at a dose of 5mg/kg and 1 hour later blood collected and plasma isolated and the PBF determined as described previously using Centrifree® YM-30 centrifuge filter unit with a molecular weight cutoff of 30K (i.e., Millipore, Billerica,MO).

metabolism of the parental drug [1]: < 15% | drug metabolized (HUVEC cells): < 15% | Cmax for protein free-tasquinimod ([3]; 5 mg/kg oral): ~ 0.24 μM | time plasma concentration remains above 1 μM ([3]; 5 mg/kg oral gavage, nude mice): at least 24 hours | increase in plasma elimination half-life on ketoconazole co-treatment ([3]; 5 mg/kg oral tasquinimod with ketoconazole 25mg/kg/day oral): more than 8 fold | apparent volume of distribution ([3]; absorption phase, 5 mg/kg oral): 0.31 L/kg | fraction of blood drug located in the plasma and not in blood cells ([3]; fractionated whole blood, 4hours post oral dosing): > 98% | Tmax ([3]; male, mouse, plasma, 5 mg/kg oral gavage, nude mice, read-out: time to maximum plasma concentration): ≤ 1 h | half-life ([3]; male, nude, mouse, plasma, 5 mg/kg oral, read-out: half-life of α-distribution phase (converted)): 3.2 h | half-life ([3]; male, nude, mouse, plasma, 5 mg/kg oral, read-out: β-elimination phase half-life): > 10 h | Cmax ([3]; male, nude, mouse, plasma, 5 mg/kg oral, read-out: total plasma Cmax): ~12 µM | plasma tasquinimod that is albumin bound [4]: 98% | total plasma tasquinimod that is non-protein bound ([4]; following oral dosing): ~ 2% | fraction unbound at 1 h ([4]; oral, 5 mg/kg, nude mouse plasma): 0.02
SMILES: COc1cccc2c1c(O)c(C(=O)N(C)c1ccc(C(F)(F)F)cc1)c(=O)n2C [Tasquinimod]
bioavailability and oral absorption [2]: excellent
